Reference: ChEMBL document CHEMBL4308841, “Synthesis, in vitro antiproliferative activity, and kinase inhibitory effects of pyrazole-containing diarylureas and diarylamides” (Eur J Med Chem, 2018)

Legend:
[1] = tested on: SK-MEL-28; experiment: Growth inhibition of human SK-MEL-28 cells incubated for 48 hrs by sulforhodamine B assay; format: functional, cell-based; settings: SK-MEL-28, 48 h
[2] = tested on: MDA-MB-231; experiment: Growth inhibition of human MDA-MB-231 cells incubated for 48 hrs by sulforhodamine B assay; format: functional, cell-based; settings: MDA-MB-231, 48 h
[3] = tested on: Hs-578T; experiment: Growth inhibition of human Hs578T cells assessed as cell growth at 1 uM incubated for 48 hrs by sulforhodamine B assay relative to control; format: functional; settings: read-out: Activity
[4] = tested on: HT-29; experiment: Growth inhibition of human HT-29 cells assessed as cell growth at 0.01 uM incubated for 48 hrs by sulforhodamine B assay relative to control; format: functional; settings: HT-29, 48 h, read-out: Activity
[5] = tested on: SF-295; experiment: Growth inhibition of human SF295 cells assessed as cell growth at 100 uM incubated for 48 hrs by sulforhodamine B assay relative to control; format: functional; settings: SF-295, 48 h, read-out: Activity
[6] = tested on: NCI-H322M; experiment: Growth inhibition of human NCI-H322M cells assessed as cell growth at 100 uM incubated for 48 hrs by sulforhodamine B assay relative to control; format: functional; settings: read-out: Activity
[7] = tested on: UACC-62; experiment: Growth inhibition of human UACC62 cells assessed as cell growth at 1 uM incubated for 48 hrs by sulforhodamine B assay relative to control; format: functional; settings: UACC-62, 48 h, read-out: Activity
[8] = tested on: NCI-H522; experiment: Growth inhibition of human NCI-H522 cells assessed as cell growth at 1 uM incubated for 48 hrs by sulforhodamine B assay relative to control; format: functional; settings: NCI-H522, 48 h, read-out: Activity
[9] = tested on: SR; experiment: Growth inhibition of human SR cells assessed as cell growth at 1 uM incubated for 48 hrs by sulforhodamine B assay relative to control; format: functional; settings: read-out: Activity
[10] = tested on: HOP-62; experiment: Growth inhibition of human HOP62 cells incubated for 48 hrs by sulforhodamine B assay; format: functional, cell-based; settings: HOP-62, 48 h
[11] = tested on: OVCAR-4; experiment: Growth inhibition of human OVCAR4 cells incubated for 48 hrs by sulforhodamine B assay; format: functional, cell-based; settings: OVCAR-4, 48 h
[12] = tested on: Hs-578T; experiment: Growth inhibition of human Hs578T cells assessed as cell growth at 0.1 uM incubated for 48 hrs by sulforhodamine B assay relative to control; format: functional; settings: read-out: Activity
[13] = tested on: SNB-19; experiment: Growth inhibition of human SNB19 cells incubated for 48 hrs by sulforhodamine B assay; format: functional, cell-based; settings: SNB-19, 48 h
[14] = tested on: SW-620; experiment: Growth inhibition of human SW620 cells assessed as cell growth at 100 uM incubated for 48 hrs by sulforhodamine B assay relative to control; format: functional; settings: SW-620, 48 h, read-out: Activity
[15] = tested on: T47D; experiment: Growth inhibition of human T47D cells assessed as cell growth at 0.01 uM incubated for 48 hrs by sulforhodamine B assay relative to control; format: functional; settings: read-out: Activity
[16] = tested on: A498; experiment: Growth inhibition of human A498 cells incubated for 48 hrs by sulforhodamine B assay; format: functional, cell-based; settings: A498, 48 h
[17] = tested on: HCC 2998; experiment: Growth inhibition of human HCC2998 cells assessed as cell growth at 0.01 uM incubated for 48 hrs by sulforhodamine B assay relative to control; format: functional; settings: HCC 2998, 48 h, read-out: Activity
[18] = tested on: Malme-3M; experiment: Growth inhibition of human MALME-3M cells assessed as cell growth at 0.01 uM incubated for 48 hrs by sulforhodamine B assay relative to control; format: functional; settings: read-out: Activity
[19] = tested on: HCT-15; experiment: Growth inhibition of human HCT15 cells assessed as cell growth at 0.1 uM incubated for 48 hrs by sulforhodamine B assay relative to control; format: functional; settings: HCT-15, 48 h, read-out: Activity
[20] = tested on: NCI-H460; experiment: Growth inhibition of human NCI-H460 cells assessed as cell growth at 0.1 uM incubated for 48 hrs by sulforhodamine B assay relative to control; format: functional; settings: NCI-H460, 48 h, read-out: Activity
[21] = tested on: OVCAR-8; experiment: Growth inhibition of human OVCAR8 cells assessed as cell growth at 0.01 uM incubated for 48 hrs by sulforhodamine B assay relative to control; format: functional; settings: OVCAR-8, 48 h, read-out: Activity
[22] = tested on: A498; experiment: Growth inhibition of human A498 cells assessed as cell growth at 1 uM incubated for 48 hrs by sulforhodamine B assay relative to control; format: functional; settings: A498, 48 h, read-out: Activity
[23] = tested on: Malme-3M; experiment: Growth inhibition of human MALME-3M cells assessed as cell growth at 0.1 uM incubated for 48 hrs by sulforhodamine B assay relative to control; format: functional; settings: read-out: Activity
[24] = tested on: LOX IMVI; experiment: Growth inhibition of human LOXIMVI cells assessed as cell growth at 100 uM incubated for 48 hrs by sulforhodamine B assay relative to control; format: functional; settings: read-out: Activity
[25] = tested on: M14; experiment: Growth inhibition of human M14 cells incubated for 48 hrs by sulforhodamine B assay; format: functional, cell-based; settings: M14, 48 h
[26] = tested on: BT-549; experiment: Growth inhibition of human BT549 cells assessed as cell growth at 1 uM incubated for 48 hrs by sulforhodamine B assay relative to control; format: functional; settings: BT-549, 48 h, read-out: Activity
[27] = tested on: NCI-H460; experiment: Growth inhibition of human NCI-H460 cells assessed as cell growth at 0.01 uM incubated for 48 hrs by sulforhodamine B assay relative to control; format: functional; settings: NCI-H460, 48 h, read-out: Activity
[28] = tested on: MCF7; experiment: Growth inhibition of human MCF7 cells incubated for 48 hrs by sulforhodamine B assay; format: functional, cell-based; settings: MCF7, 48 h
[29] = read-out: LC50 (the source's name)
[30] = read-out: pLC50 (the source's name) (converted)

`O=C(Nc1cccc(-n2cc(-c3ccncc3)c(-c3cc(O)cc(Cl)c3)n2)c1)Nc1ccc(Cl)c(Cl)c1` was tested, and the GI50 ([1]; read-out: GI50) was 2140 nM, the CC50 [1, 29] was 4.2 µM and the TGI ([1]; read-out: TGI) was 55.5 µM. For the same compound, the GI50 ([1]; read-out: pGI50 (converted)) was 2140 nM, the CC50 [1, 30] was 41.7 µM and the TGI ([1]; read-out: pTGI (converted)) was 5.5 µM. For the same compound, the GI50 ([2]; read-out: GI50) was 1010 nM, the CC50 [2, 29] was > 100 µM and the TGI ([2]; read-out: TGI) was 77 µM. The GI50 ([2]; read-out: pGI50 (converted)) was 1000 nM, the CC50 [2, 30] was > 100 µM and the TGI ([2]; read-out: pTGI (converted)) was 7.76 µM. For the same compound, the growth at 1 µM [3] was 57%, the growth at 0.01 µM [4] was 91% and the growth at 100 µM [5] was -58%. For the same compound, the growth at 100 µM [6] was -24%, the growth at 1 µM [7] was 83% and the growth at 1 µM [8] was 54%. The growth at 1 µM [9] was 62%, the GI50 ([10]; read-out: GI50) was 2520 nM and the CC50 [10, 29] was > 100 µM. For the same compound, the TGI ([10]; read-out: TGI) was 85.1 µM, the GI50 ([10]; read-out: pGI50 (converted)) was 2820 nM and the CC50 [10, 30] was > 100 µM. The TGI ([10]; read-out: pTGI (converted)) was 8.51 µM, the GI50 ([11]; read-out: GI50) was 2900 nM and the CC50 [11, 29] was > 100 µM. For the same compound, the GI50 ([11]; read-out: pGI50 (converted)) was 2950 nM, the CC50 [11, 30] was > 100 µM and the growth at 0.1 µM [12] was 92%. The GI50 ([13]; read-out: GI50) was 3.38 µM, the CC50 [13, 29] was > 100 µM and the TGI ([13]; read-out: TGI) was 19 µM. The GI50 ([13]; read-out: pGI50 (converted)) was 3.16 µM, the CC50 [13, 30] was > 100 µM and the TGI ([13]; read-out: pTGI (converted)) was 19.1 µM. It also gave a growth at 100 µM [14] of -36%, a growth at 0.01 µM [15] of 106% and a GI50 ([16]; read-out: GI50) of 2090 nM. It also gave a CC50 [16, 29] of 4.13 µM, a TGI ([16]; read-out: TGI) of 90.6 µM and a GI50 ([16]; read-out: pGI50 (converted)) of 2090 nM. For the same compound, the CC50 [16, 30] was 41.7 µM, the TGI ([16]; read-out: pTGI (converted)) was 9.12 µM and the growth at 0.01 µM [17] was 104%. The growth at 0.01 µM [18] was 57%, the growth at 0.1 µM [19] was 95% and the growth at 0.1 µM [20] was 97%. It also gave a growth at 0.01 µM [21] of 102%, a growth at 1 µM [22] of 75% and a growth at 0.1 µM [23] of 84%. The growth at 100 µM [24] was -38%, the GI50 ([25]; read-out: GI50) was 1440 nM and the CC50 [25, 29] was 7.44 µM. For the same compound, the TGI ([25]; read-out: TGI) was 32.8 µM, the GI50 ([25]; read-out: pGI50 (converted)) was 1450 nM and the CC50 [25, 30] was 7.41 µM. For the same compound, the TGI ([25]; read-out: pTGI (converted)) was 3.31 µM, the growth at 1 µM [26] was 89% and the growth at 0.01 µM [27] was 102%. For the same compound, the GI50 ([28]; read-out: GI50) was 2510 nM, the LC50 ([28]; read-out: LC50) was > 100 µM and the TGI ([28]; read-out: TGI) was 97.4 µM. For the same compound, the GI50 ([28]; read-out: pGI50 (converted)) was 2820 nM, the LC50 ([28]; read-out: pLC50 (converted)) was > 100 µM and the TGI ([28]; read-out: pTGI (converted)) was 9.77 µM.
